{
  "source": "patent US9623031B2",
  "about": "“Compositions, methods and kits for treating cancer” (priority 2011, dated 2017)",
  "key": {"[1]": {"tested_on": "normal HSCs (MSCV-GFP^+HSC)", "experiment": "Effect on normal HSCs (MSCV-GFP+ HSC) treated ex vivo"}, "NF-κB": {"tested_on": "NF-κB", "experiment": "NF-κB activation in sorted BCR-ABL+ LSCs (EMSA, Western blot)", "type": "cell-based, mouse", "conditions": "25 nM, 0-6 h", "protocol": "The effect of Δ^12-PGJ3 on NF-κB and PPAPγ was examined. RAW264.7 macrophages were pretreated with DMSO, Δ^12-PGJ3 at 0.25, or 1.0 μM and subsequently stimulated with 100 ng/mL E. coli LPS for 4 h. The nuclear extracts were prepared and the binding of NΦκB to a ^32P-labeled consensus double stranded oligonucleotide probe was examined using gel shift analysis. NS=non-specific band. Lanes 1-5 represent untreated, LPS alone, DMSO+LPS, Δ^12-PGJ3 (0.25 μM)+LPS, and Δ^12-PGJ3 (1 μM)+LPS, respectively. BCR-ABL LSCs were sorted from spleens, plated, and treated with PBS, 25 nM Δ^12-PGJ3, or 9,10-dihydro 15d-PGJ2 for 0, 2 or 6 h. The cells were harvested and nuclear extracts were prepared using standard techniques. Ten μg of nuclear protein was used from each sample for the gel-shift reaction. As a positive control for NF-κB, nuclear extract from LPS-treated murine (RAW264.7) macrophages was used. Anti-p50 Ab was used with this positive control for a supershift, and excess ‘cold’ probe was used with the positive control as a ‘cold competitor’. A Western blot analysis was performed of the above-mentioned nuclear extracts from BCR-ABL LSCs treated with PBS, Δ^12-PGJ3 or 9,10-dihydro-15d-PGJ2 for various time periods (0-6 h) probed with anti-p65 and anti-β-actin antibodies. […]"}, "residual BCR-ABL LSCs": {"tested_on": "residual BCR-ABL LSCs", "experiment": "Secondary transplants from treated BCR-ABL mice (residual LSCs)", "type": "in vivo, mouse", "protocol": "Secondary transplants to test for residual LSCs after treatment with Δ^12-PGJ3: For the CML model, B6.SJLPtprca Pep3b/BoyJ (CD45.1^+) mice were treated with 5-FU and bone marrow cells enriched in cycling HSCs were isolated followed by infection with MIGR-BCR-ABL virus or control MSCV-GFP virus as described above. The cells were transplanted into C57BL/6 (CD45.2) recipient mice as mentioned earlier. The mice were treated with Δ^12-PGJ3 or vehicle control as indicated. Two weeks after treatment, spleen cells were isolated and transplanted into irradiated secondary C57BL/6 (CD45.2) recipients as described above. Two weeks after secondary transplant, mice were analyzed for WBC counts, splenomegaly and the presence of GFP^+ or CD45.1 donor cells in the bone marrow and spleen by flow cytometry. Secondary transplants were also done with FV infected mice treated with Δ^12-PGJ3 or vehicle control. BALB/c mice were infected with Friend virus as described above. The mice were treated with Δ^12-PGJ3 or vehicle control as indicated. Two weeks after treatment, spleen cells isolated from FV-infected mice and transplanted into BALB/c-Stk^−/− recipient mice (1×10^5 cells per mouse). Five weeks post transplant, the mice with secondary transplants were tested for WBC counts, splenomegaly and for the presence of M34^+Kit^+Sca1^+FV-LSCs by flow cytometry."}, "Survivin": {"tested_on": "Survivin", "experiment": "Survivin expression in human AML sample (RT-PCR)", "type": "cell-based", "conditions": "6 h", "protocol": "Survivin expression in the human AML sample post Δ^12-PGJ3 treatments was examined. Total RNA was isolated from AML cells with indicated treatments (for 6 h) using Trizol (Invitrogen) cDNA was generated using Superscript II (Invitrogen) and cDNA were quantified by RT-PCR using SYBR green PCR master mix and primers that amplify a 76 nt PCR product. A Taqman probe for GAPDH (Applied biosystems) was used."}, "[2]": {"tested_on": "murine erythroleukemia (MEL) cells", "experiment": "MEL cell apoptosis and viability (MTT, CCK-8)", "type": "cell-based, mouse", "protocol": "Cell culture. Murine erythroleukemia (MEL) cells were cultured in DMEM with 10% FBS. In order to examine the production 3-series PGs, BALB/c-derived RAW264.7 macrophage-like cells (ATCC) were cultured in DMEM containing 5% FBS, 250 nM sodium selenite, and 50 μM EPA (as BSA conjugate) for 72 h followed by stimulation with E. coli endotoxin lipopolysaccharide (LPS; Serotype 0111B4; 50 ng/ml) for 30 min. The cells were cultured in fresh DMEM for an additional 24-144 h. Cells cultured with cell culture-grade fatty acid free BSA (Sigma Aldrich) served as a control. Culture media was withdrawn at various times and analyzed for 3-series PGs as described below. Total RNA was isolated from cells or tissues using Trizol reagent as per the instructions of the supplier (Invitrogen, Carlsbad, Calif.) and cDNA was prepared using a High Capacity cDNA Reverse Transcriptase kit (Applied Biosystems, Foster City, Calif.). Semiquantitative RT-PCR for p53 and β-actin was performed with primers as described in Supplementary Methods. Nuclear and cytoplasmic protein extracts of LSCs were prepared using standard methods previously described (Vunta H et al., J Biol Chem. 2007; 282:17964-17973).\nCell viability studies. MEL cells were cultured in DMEM containing 10% FBS and treated with various commonly used anti-leukemic drugs such as daunorubicin (DNR), mitoxantrone (MIT), and cytarabine (CYT) at a final concentration […] for 24 h. […] After 24 h of drug treatment, cell proliferation was measured by MTT assay with CCK-8 kit from Dojindo Molecular Technologies, Inc. (Gaithersburg, Md.). All viability values reported are relative to untreated cells (UT) that was designated to be 100%. Results represent the mean±SEM of three independent observations.\nIn order to address whether MEL cells are resistant in general to chemotherapy agents, we tested whether MEL cells can be killed by apoptosis when treated with standard anti-leukemia drugs. Treatment with various commonly used anti-leukemic drugs such as daunorubicin (DNR), mitoxantrone (MIT), and cytarabine (CYT) at a final concentration 1 μM for 24 h. […] After 24 h of drug treatment, cell proliferation was measured by MTT assay with CCK-8 kit from Dojindo Molecular Technologies, Inc. (Gaithersburg, Md.). […] The results represent the mean±SEM of three independent observations."}},
  "note": "Entries after “also recorded” stand apart in the source; their conditions may differ.",
  "data": [
    {"smiles": "CC/C=C\\C[C@H](O)C/C=C1/C(=O)C=C[C@@H]1C/C=C\\CCCC(=O)O", "note": "[Δ^12-PGJ3, Δ^12-prostaglandin J3]", "values": [
      {"measurement": "effect on normal HSCs", "setting": "[1]; Kit+Sca1+Lin−GFP+ cells from MSCV-control mice, ex vivo 36 h", "result": "no adverse effects on HSCs or downstream progenitors; also recorded: did not affect the normal HSCs"},
      {"measurement": "viability of MSCV-HSC control cells", "setting": "[1]; antagonists/inhibitor 10 nM, Δ^12-PGJ3 25 nM, 36 h", "result": "not affected"},
      {"measurement": "NF-κB activation, EMSA and Western blot of nuclear extracts", "setting": "NF-κB", "result": "lack of activation of NF-κB"},
      {"measurement": "Kit+Sca1+GFP+ LSCs in spleen of secondary recipients", "setting": "residual BCR-ABL LSCs; donor cells from treated mice", "result": "lacked Kit^+Sca1^+GFP^+ cells"},
      {"measurement": "splenomegaly and WBC counts in secondary recipients", "setting": "residual BCR-ABL LSCs; donor spleen cells from treated mice, two weeks after secondary transplant", "result": "failed to develop splenomegaly or high WBC counts"},
      {"measurement": "survivin expression", "setting": "Survivin", "result": "decreases the expression of survivin"},
      {"measurement": "apoptosis of MEL cells (lack functional p53)", "setting": "[2]", "result": "cannot induce apoptosis; also recorded: failed to initiate apoptosis"}
    ]}
  ]
}
